The test system of assay [1] is Primary AML cells with IDH mutations. The assay can be described thus: JQ1 sensitivity of primary AML cells. It counts as cell-based, human. As to conditions: "often".
Assay [2] deals with R-2HG-resistant leukemic cells. The experiment in a line: JQ1 with R-2HG in resistant leukemic cells, cell viability. It counts as cell-based, human. As to conditions: inhibition of MYC signaling by JQ1. The method, then: Cell proliferation/viability, cell cycle and cell apoptosis assays. To study the effects of R-2HG, FTO, or IDH1^R132H on viability, the cells were seeded into 96-well plates at the concentration of 5,000-10,000 cells/well in triplicates and MTT (G4000, Promega) was used to assess cell proliferation and viability following the manufacturer's instructions. For cell cycle analysis, Propidium iodide (PI) DNA staining was used to assess the cells at G0/G1, S and G2/M phases, while Hoechst 33342 and Pyronin Y were used to determine the cells at G0, G1 and S/G2/M stages. For the PI staining, cells were resuspended in Krishan's reagent (0.05 mg/ml PI, 0.1% trisodium citrate, 0.02 mg/ml ribonuclease A, 0.3% NP-40), incubated at 37° C. for 30 minutes and then applied to the flow cytometer.; For Hoechst/Pyronin Y staining, the cells were suspended in cell culture medium, incubated at 37° C. for 45 minutes with existence of 10 ug/mL Hoechst 33342 and further incubated at 37° C. for 15 minutes with existence of Pyronin Y before flow cytometry. Cell apoptosis assay was conducted with FITC Annexin V Apoptosis Detection Kit I (BD Pharmingen) according to the manufacturer's instructions.

The structures appear in SMILES notation. A value given as a limit tells only on which side of the number the result lay.

Broadly, the IC50 is the midpoint of a concentration-inhibition curve. The low end stands for higher potency, the high end for lower potency. As to `Cc1sc2c(c1C)C(c1ccc(Cl)cc1)=N[C@@H](CC(=O)OC(C)(C)C)c1nnc(C)n1-2` [JQ1], the IC50 in assay [1] was less than 1000 nM. Besides, the “sensitivity of R-2HG-resistant leukemic cells to exogenous R-2HG or IDH1^R132H” value in assay [2] is given as “notably increased sensitivity”.
